Assay results published in ChEMBL document CHEMBL1154458, “QSAR study on tetrahydroquinoline analogues as plasmodium protein farnesyltransferase inhibitors: a comparison of rationales of malarial and mammalian enzyme inhibitory activities for selectivity” (Eur J Med Chem, 2008).

Legend:
[1] = Inhibition of Plasmodium falciparum PFT
[2] = Inhibition of rat PFT
Plasmodium falciparum = assay: Antiplasmodial activity against Plasmodium falciparum 3D7; assay type: functional, organism-based

SMILES | pIC50 [1] | pIC50 [2] | IC50 (Plasmodium falciparum)
Cn1cncc1CN1CC(N(CC(=O)NC(C)(C)C)S(=O)(=O)c2nccn2C)Cc2cc(C#N)ccc21 (stereo unspecified) | 8.1 | 8.3 | > 5010 nM
Cn1cnc(S(=O)(=O)N(Cc2ccc3ccccc3c2Br)C2Cc3cc(C#N)ccc3N(Cc3cncn3C)C2)c1 (stereo unspecified) | 7.55 | 6 | 3020 nM
Cn1cncc1CN1CC(N(CC(=O)NC(C)(C)C)S(=O)(=O)c2cccnc2)Cc2cc(C#N)ccc21 (stereo unspecified) | 7.6 | 8.22 | 2690 nM
Cn1cncc1CN1CC(N(CC(=O)NC(C)(C)C)S(=O)(=O)c2ccc(F)cc2)Cc2cc(C#N)ccc21 (stereo unspecified) | 7.38 | 8.12 | > 5010 nM
Cn1cncc1CN1CC(N(Cc2cc3nsnc3cc2Cl)S(=O)(=O)c2ccccn2)Cc2cc(C#N)ccc21 (stereo unspecified) | 7.26 | 8 | 3020 nM
Cc1onc(-c2ccccc2)c1CN(C1Cc2cc(C#N)ccc2N(Cc2cncn2C)C1)S(=O)(=O)c1ccccn1 (stereo unspecified) | 9.1 | 8.52 | 112 nM
Cn1cncc1CN1CC(N(Cc2ccc3ccccc3c2Br)S(=O)(=O)c2ccccn2)Cc2cc(C#N)ccc21 (stereo unspecified) | 6.78 | 6.36 | 2750 nM
Cn1cncc1CN1CC(N(CC(=O)NC(C)(C)C)S(=O)(=O)c2ccncc2)Cc2cc(C#N)ccc21 (stereo unspecified) | 6 | 6.8 | > 5010 nM

Stronger by IC50 (Plasmodium falciparum), values ahead:

pIC50 [1] | pIC50 [2] | IC50 (Plasmodium falciparum) | SMILES
9.22 | 9.16 | 6.92 nM | C=C(C)CN(C1Cc2cc(C#N)ccc2N(Cc2cncn2C)C1)S(=O)(=O)c1cn(C)cn1 (stereo unspecified)
9.22 | 8.92 | 5.01 nM | Cn1cnc(S(=O)(=O)N(Cc2ccccc2)C2Cc3cc(C#N)ccc3N(Cc3cncn3C)C2)c1 (stereo unspecified)
9.05 | 8.92 | 5.01 nM | Cn1cnc(S(=O)(=O)N(CC(=O)OC(C)(C)C)C2Cc3cc(C#N)ccc3N(Cc3cncn3C)C2)c1 (stereo unspecified)
8.82 | 8.47 | 55 nM | Cc1ccccc1CN(C1Cc2cc(C#N)ccc2N(Cc2cncn2C)C1)S(=O)(=O)c1cn(C)cn1 (stereo unspecified)
8.55 | 8.42 | 51.3 nM | Cn1cncc1CN1CC(N(Cc2ccccn2)S(=O)(=O)c2ccccn2)Cc2cc(C#N)ccc21 (stereo unspecified)
9.4 | 9.1 | 6.03 nM | C=C(Br)CN(C1Cc2cc(C#N)ccc2N(Cc2cncn2C)C1)S(=O)(=O)c1cn(C)cn1 (stereo unspecified)
8.92 | 8.82 | 5.01 nM | Cn1cnc(S(=O)(=O)N(CC(=O)NC(C)(C)C)C2Cc3cc(C#N)ccc3N(Cc3cncn3C)C2)c1 (stereo unspecified)
8.96 | 8.5 | 100 nM | Cn1cnc(S(=O)(=O)N(CC2CCN(C(=O)OC(C)(C)C)CC2)C2Cc3cc(C#N)ccc3N(Cc3cncn3C)C2)c1 (stereo unspecified)
8.85 | 8.75 | 85.1 nM | Cn1cncc1CN1CC(N(CC(=O)NC(C)(C)C)S(=O)(=O)c2ccccn2)Cc2cc(C#N)ccc21 (stereo unspecified)
